In US20190071416A1, “COMPOUNDS FOR TREATMENT OF CANCER AND EPIGENETICS” (Agency For Science, Technology and Research, priority 2015, published 2019) one finds IC50 data, which are given here for 33 molecules.

Each structure is given as a SMILES string.

Usually IC50 stands for the point on the concentration scale where inhibition reaches its midpoint.

The target of the experiment is T1, SMYD3 (Homo sapiens, UniProt Q9H7B4).
T1 sequence (Q9H7B4 1-428): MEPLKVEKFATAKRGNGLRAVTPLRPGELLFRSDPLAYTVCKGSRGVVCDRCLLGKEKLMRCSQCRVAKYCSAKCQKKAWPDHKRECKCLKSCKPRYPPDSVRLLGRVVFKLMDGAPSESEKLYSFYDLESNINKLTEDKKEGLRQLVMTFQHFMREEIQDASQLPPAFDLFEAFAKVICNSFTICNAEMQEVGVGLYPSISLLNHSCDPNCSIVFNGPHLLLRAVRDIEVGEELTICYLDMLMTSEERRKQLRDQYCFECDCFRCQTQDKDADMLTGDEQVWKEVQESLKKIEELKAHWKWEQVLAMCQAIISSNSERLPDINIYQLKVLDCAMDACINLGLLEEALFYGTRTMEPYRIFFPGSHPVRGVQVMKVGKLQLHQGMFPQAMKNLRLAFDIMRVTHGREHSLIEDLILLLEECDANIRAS
As to the kind of experiment: SMYD3 biochemical assay (MTase-Glo, MAP3K2 peptide substrate). The settings on record: Table 3; MTase assay, MAP3K2 peptide substrate; read-out: IC50. The procedure, abridged: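 Methylation of MAP3K2 peptide (10 µM final) with SAM (1.0 µM final) by SMYD3, 30 min at room temperature. SAH formed was enzymatically converted to ATP and detected as luminescence with MTase-Glo reagents; IC50 by non-linear regression.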
Regarding `C#CCC1CCc2c(nc3cc(C(=O)N4CCN(C(=O)OCCC)C[C@@H]4C)ccc3c2Cl)C1` (stereo partly drawn) [A137, Propyl (3S)-4-(9-chloro-6-(prop-2-yn-1-yl)-5,6,7,8-tetrahydroacridine-3-carbonyl)-3-methylpiperazine-1-carboxylate], the half-inhibitory concentration (IC50) turned out to be 290 nM.

`CCCOC(=O)N1CCN(C(=O)c2ccc3c(Cl)c4c(nc3c2)CC(c2ccnc(C#N)c2)CC4)CC1` (stereo not drawn) [A138, Propyl 4-(9-chloro-6-(2-cyanopyridin-4-yl)-5,6,7,8-tetrahydroacridine-3-carbonyl)piperazine-1-carboxylate]: the IC50 worked out at 680 nM.

For the molecule `CCCOC(=O)N1CCN(C(=O)c2ccc3c(Cl)c4c(nc3c2)CC(c2ccnc(C(N)=O)c2)CC4)CC1` (stereo not drawn) [A139, Propyl 4-(6-(2-carbamoylpyridin-4-yl)-9-chloro-5,6,7,8-tetrahydroacridine-3-carbonyl)piperazine-1-carboxylate], the IC50 was found to be 350 nM. On to `CCCOC(=O)N1CCN(C(=O)c2ccc3c(Cl)c4c(nc3c2)CC(c2ccnc(C#N)c2)CC4)C[C@H]1C` (stereo partly drawn) [A140, Propyl (2R)-4-(9-chloro-6-(2-cyanopyridin-4-yl)-5,6,7,8-tetrahydroacridine-3-carbonyl)-2-methylpiperazine-1-carboxylate], for which the IC50 was 420 nM. Then `CCCOC(=O)N1CCN(C(=O)c2ccc3c(Cl)c4c(nc3c2)CC(c2ccnc(C(N)=O)c2)CC4)C[C@H]1C` (stereo partly drawn) [A141, Propyl (2R)-4-(6-(2-carbamoylpyridin-4-yl)-9-chloro-5,6,7,8-tetrahydroacridine-3-carbonyl)-2-methylpiperazine-1-carboxylate], with 230 nM; and `C#CCC1CCc2c(nc3cc(C(=O)N4CCN(C(=O)OCCC)[C@H](C)C4)ccc3c2Cl)C1` (stereo partly drawn) [A142, Propyl (2R)-4-(9-chloro-6-(prop-2-yn-1-yl)-5,6,7,8-tetrahydroacridine-3-carbonyl)-2-methylpiperazine-1-carboxylate], with 420 nM. To `CCCOC(=O)N1CCN(C(=O)c2ccc3c(Cl)c4c(nc3c2)CC(c2ccnc(C#N)c2)CC4)[C@@H](C)C1` (stereo partly drawn) [A143, Propyl (3S)-4-(9-chloro-6-(2-cyanopyridin-4-yl)-5,6,7,8-tetrahydroacridine-3-carbonyl)-3-methylpiperazine-1-carboxylate] belongs 460 nM; to `CCCOC(=O)N1CCN(C(=O)c2ccc3c(Cl)c4c(nc3c2)CC(c2ccnc(CN)c2)CC4)CC1` (stereo not drawn) [A144, Propyl 4-(6-(2-(aminomethyl)pyridin-4-yl)-9-chloro-5,6,7,8-tetrahydroacridine-3-carbonyl)piperazine-1-carboxylate], 510 nM; to `CCCOC(=O)N1CCN(C(=O)c2ccc3c(Cl)c4c(nc3c2)CC(c2ccnc(C(N)=O)c2)CC4)[C@@H](C)C1` (stereo partly drawn) [A145, Propyl (3S)-4-(6-(2-carbamoylpyridin-4-yl)-9-chloro-5,6,7,8-tetrahydroacridine-3-carbonyl)-3-methylpiperazine-1-carboxylate], 220 nM. In the case of `C=CCC1CCCc2c1nc1cc(C(=O)N3CCN(C(=O)OCCC)CC3)ccc1c2Cl` (stereo not drawn) [A146, Propyl 4-(5-allyl-9-chloro-5,6,7,8-tetrahydroacridine-3-carbonyl)piperazine-1-carboxylate], the IC50 turned out to be 560 nM. Then `CCCOC(=O)N1CCN(C(=O)c2ccc3c(Cl)c4c(nc3c2)CC(c2ccnc(C#N)n2)CC4)CC1` (stereo not drawn) [A148, Propyl 4-(9-chloro-6-(2-cyanopyrimidin-4-yl)-5,6,7,8-tetrahydroacridine-3-carbonyl)piperazine-1-carboxylate], with 300 nM. Then `C#Cc1ccc(C2CCc3c(nc4cc(C(=O)N5CCN(C(=O)OCCC)[C@H](C)C5)ccc4c3Cl)C2)nc1` (stereo partly drawn) [A149, Propyl (2R)-4-(9-chloro-6-(5-ethynylpyridin-2-yl)-5,6,7,8-tetrahydroacridine-3-carbonyl)-2-methylpiperazine-1-carboxylate], with 260 nM; and `C#Cc1ccc(C2CCc3c(nc4cc(C(=O)N5CCN(C(=O)OCCC)C[C@@H]5C)ccc4c3Cl)C2)nc1` (stereo partly drawn) [A150, Propyl (3S)-4-(9-chloro-6-(5-ethynylpyridin-2-yl)-5,6,7,8-tetrahydroacridine-3-carbonyl)-3-methylpiperazine-1-carboxylate], with 260 nM; and `CCCOC(=O)N1CCN(C(=O)c2ccc3c(Cl)c4c(nc3c2)CC(c2cnn(C)c2)CC4)CC1` (stereo not drawn) [A151, Propyl 4-(9-chloro-6-(1-methyl-1H-pyrazol-4-yl)-5,6,7,8-tetrahydroacridine-3-carbonyl)piperazine-1-carboxylate], with 46 nM.

As for `CCCOC(=O)N1CCN(C(=O)c2ccc3c(Cl)cc(-c4cccnc4)nc3c2)CC1` [B001, Propyl 4-(4-chloro-2-(pyridin-3-yl)quinoline-7-carbonyl)piperazine-1-carboxylate], the IC50 was 2400 nM. As for `CCCOC(=O)N1CCN(C(=O)c2ccc3c(Cl)cc(-c4ccccc4)nc3c2)CC1` [B002, Propyl 4-(4-chloro-2-phenylquinoline-7-carbonyl)piperazine-1-carboxylate], the IC50 was found to be 410 nM. Then `CCCOC(=O)N1CCN(C(=O)c2ccc3c(Cl)c(CC)c(-c4ccccc4)nc3c2)CC1` [B004, Propyl 4-(4-chloro-3-ethyl-2-phenylquinoline-7-carbonyl)piperazine-1-carboxylate], with 1400 nM; and `CCCOC(=O)N1CCN(C(=O)c2ccc3c(Cl)cc(-c4cncc(C)c4)nc3c2)CC1` [B005, Propyl 4-(4-chloro-2-(5-methylpyridin-3-yl)quinoline-7-carbonyl)piperazine-1-carboxylate], with 2500 nM.

As for `CCCOC(=O)N1CCN(C(=O)c2ccc3c(Cl)c(C)c(-c4ccccc4)nc3c2)C[C@@H]1C` [B006, Propyl (S)-4-(4-chloro-3-methyl-2-phenylquinoline-7-carbonyl)-2-methylpiperazine-1-carboxylate], the IC50 worked out at 160 nM. To `CCCOC(=O)N1CCN(C(=O)c2ccc3c(Cl)c(C)c(-c4ccccc4)nc3c2)C[C@H]1C` [B007, Propyl (R)-4-(4-chloro-3-methyl-2-phenylquinoline-7-carbonyl)-2-methylpiperazine-1-carboxylate] belongs 220 nM. To `CCCOC(=O)N1CCN(C(=O)c2ccc3c(Cl)cc(-c4ccccn4)nc3c2)CC1` [B008, Propyl 4-(4-chloro-2-(pyridin-2-yl)quinoline-7-carbonyl)piperazine-1-carboxylate] belongs 1400 nM; to `CCCOC(=O)N1CCN(C(=O)c2ccc3c(Cl)cc(Cc4ccccc4)nc3c2)CC1` [B009, Propyl 4-(2-benzyl-4-chloroquinoline-7-carbonyl)piperazine-1-carboxylate], 3300 nM. Turning to `CCCOC(=O)N1CCN(C(=O)c2ccc3c(Cl)cc(-c4ccc(C)cc4)nc3c2)CC1` [B010], the IC50 amounted to 500 nM. Then `CCCOC(=O)N1CCN(C(=O)c2ccc3c(Cl)cc(-c4cccc(C)c4)nc3c2)CC1` [B011, Propyl 4-(4-chloro-2-(m-tolyl)quinoline-7-carbonyl)piperazine-1-carboxylate], with 770 nM; and `CCCOC(=O)N1CCN(C(=O)c2ccc3c(Cl)cc(-c4ccccc4C)nc3c2)CC1` [B012, Propyl 4-(4-chloro-2-(o-tolyl)quinoline-7-carbonyl)piperazine-1-carboxylate], with 2900 nM. Then `CCCOC(=O)N1CCN(C(=O)c2ccc3c(Cl)cc(-c4ccncc4)nc3c2)CC1` [B013, Propyl 4-(4-chloro-2-(pyridin-4-yl)quinoline-7-carbonyl)piperazine-1-carboxylate], with 950 nM. Then `CCCOC(=O)N1CCN(C(=O)c2ccc3c(Cl)cc(-c4ccccc4)nc3c2)[C@@H](C)C1` [B014, Propyl (S)-4-(4-chloro-2-phenylquinoline-7-carbonyl)-3-methylpiperazine-1-carboxylate], with 170 nM; and `CCCOC(=O)N1CCN(C(=O)c2ccc3c(Cl)cc(-c4ccccc4)nc3c2)[C@H](C)C1` [B015, Propyl (R)-4-(4-chloro-2-phenylquinoline-7-carbonyl)-3-methylpiperazine-1-carboxylate], with 190 nM; and `CCCOC(=O)N1CCN(C(=O)c2ccc3c(Cl)c(C)c(-c4ccccc4)nc3c2)[C@@H](C)C1` [B016, Propyl (S)-4-(4-chloro-3-methyl-2-phenylquinoline-7-carbonyl)-3-methylpiperazine-1-carboxylate], with 150 nM. Regarding `CCCOC(=O)N1CCN(C(=O)c2ccc3c(Cl)c(C)c(-c4ccccc4)nc3c2)[C@H](C)C1` [B017, Propyl (R)-4-(4-chloro-3-methyl-2-phenylquinoline-7-carbonyl)-3-methylpiperazine-1-carboxylate], the IC50 was 300 nM. Then `CCCOC(=O)N1CCN(C(=O)c2ccc3c(Cl)cc(-c4ccccc4)nc3c2)C[C@@H]1C` [B018, Propyl (S)-4-(4-chloro-2-phenylquinoline-7-carbonyl)-2-methylpiperazine-1-carboxylate], with 130 nM; and `CCCOC(=O)N1CCN(C(=O)c2ccc3c(Cl)c(C)c(-c4ccc(C(F)(F)F)cc4)nc3c2)CC1` [B020, Propyl 4-(4-chloro-3-methyl-2-(4-(trifluoromethyl)phenyl)quinoline-7-carbonyl)piperazine-1-carboxylate], with 3200 nM; and `CCCOC(=O)N1CCN(C(=O)c2ccc3c(Cl)c(C)c(-c4ccc(Cl)cc4)nc3c2)CC1` [B021, Propyl 4-(4-chloro-2-(4-chlorophenyl)-3-methylquinoline-7-carbonyl)piperazine-1-carboxylate], with 1300 nM.
